What was measured:
PLpro^C112S = PLpro^C112S (Severe acute respiratory syndrome coronavirus 2, UniProt P0DTD1, C1674S); type: binding, SARS-CoV-2
3CLpro^D155A/C156S = 3CLpro^D155A/C156S (Severe acute respiratory syndrome coronavirus 2, UniProt P0DTD1, C3419S/D3418A); type: biochemical, SARS-CoV-2; settings: read-out: IC50, 3CLpro^D155A/C156S activity

SMILES: O=C([O-])[C@H](O)[C@@H](O)[C@H](O)[C@H](O)CO.O=C([O-])[C@H](O)[C@@H](O)[C@H](O)[C@H](O)CO.[Zn+2] [Zn^2+, zinc gluconate]
- Zn2+ binding capacity of PLpro^C112S (ICP-MS) (PLpro^C112S): 0.71 ± 0.01 eq.
- IC50 (3CLpro^D155A/C156S): 1540 ± 50 nM

Reference: article PMC8886686 (Journal of Inorganic Biochemistry, 2022)
